Drawing on patent US20120328569A1, “INHIBITORS OF HEPATITIS C VIRUS NS5B POLYMERASE” (priority 2010, published 2012), this text covers IC50 for 26 compounds.

For the test, the system named is HCV genotype 1b replicon. Kind of test: HCV replicon assay, cell ELISA with antibody to replicon-encoded NS3/4A (genotype 1b replicon). Format: cell-based, hepatitis C virus. To be noted: Hepatitis C virus, 96 h, read-out: Replicon 1b IC50 (nM), HCV genotype 1b replicon cells, 96 hours incubation, NS3/4A ELISA readout. The protocol:
The HCV NS5B inhibitory activity of the present compounds may be tested using assays known in the art. The HCV NS5B polymerase inhibitors described herein have activities in a genotype 1b replicon assay as described in the Examples. The assay is performed by incubating a replicon harboring cell-line in the presence of inhibitor for a set period of time and measuring the effect of the inhibitor on HCV replicon replication either directly by quantifying replicon RNA level, or indirectly by measuring enzymatic activity of a co-encoded reporter enzyme such as luciferase or β-lactamase. By performing a series of such measurements at different inhibitor concentrations, the effective inhibitory concentration of the inhibitor (EC50 or EC90) is determined. See Jan M. Vrolijk et al., A replicons-based bioassay for the measurement of interferons in patients with chronic hepatitis C, 110 J. VIROLOGICAL METHODS 201 (2003). Such assays may also be run in an automated format for high through-put screening. See Paul Zuck et al., A cell-based β-lactamase reporter gene assay for the identification of inhibitors of hepatitis C virus replication, 334 ANALYTICAL BIOCHEMISTRY 344 (2004).
Measurement of inhibition by compounds was performed using the HCV replicon system. Several different replicons encoding different HCV genotypes or mutations were used. In addition, potency measurements were made using different formats of the replicon assay, including different ways of measurements and different plating formats. See Jan M. Vrolijk et al., A replicons-based bioassay for the measurement of interferons in patients with chronic hepatitis C, 110 J. VIROLOGICAL METHODS 201 (2003); Steven S. Carroll et al., Inhibition of Hepatitis C Virus RNA Replication by 2′-Modified Nucleoside Analogs, 278(14) J. BIOLOGICAL CHEMISTRY 11979 (2003). However, the underlying principles are common to all of these determinations, and are outlined below.
Stable neomycin phosphotransferase encoding replicons-harboring cell lines were used, so all cell lines were maintained under G418 selection prior to the assay. Potency was determined using a cell ELISA assay with an antibody to the replicons encoded NS3/4a protease. See Caterina Trozzi et al., In Vitro Selection and Characterization of Hepatitis C Virus Serine Protease Variants Resistant to an Active-Site Peptide Inhibitor, 77(6) J. Virol. 3669 (2003). To initiate an assay, replicon cells were plated in the presence of a dilution series of test compound in the absence of G418. Typically, the assays were performed in a 96-well plate formate for manual operation, or a 384-well plate format for automated assay. Replicon cells and compound were incubated for 96 hours. At the end of the assay, cells were washed free of media and compound, and the cells were then lysed. RNA was quantified indirectly through detection of replicon-encoded NS3/4A protein levels, through an ELISA-based assay with an antibody specific for NS3/4A. IC50 determinations were calculated as a percentage of a DMSO control by fitting the data to a four-parameter fit function and the data obtained is provided in the table below.
(In general: Replicon systems follow genome replication, usually without infectious particles.)

Structures are written as SMILES. Bounds are passed on as bounds.

For `CNC(=O)c1c(-c2ccc(F)cc2)oc2cc(N(CC(C)C)S(C)(=O)=O)c(-c3ccccc3)cc12` [Example 16, 2-(4-fluorophenyl)-N-methyl-6-[(2-methylpropyl) (methylsulfonyl)amino]-5-phenyl-1-benzofuran-3-carboxamide], the IC50 was found to be 68 nM.
As to `CCCCN(c1cc2oc(-c3ccc(F)cc3)c(C(=O)NC)c2cc1-c1ccccc1)S(C)(=O)=O` [Example 17, 6-[butyl (methylsulfonyl)amino]-2-(4-fluorophenyl)-N-methyl-5-phenyl-1-benzofuran-3-carboxamide], the IC50 is 48 nM.
The figure for `CNC(=O)c1c(-c2ccc(F)cc2)oc2cc(N(CCC(C)C)S(C)(=O)=O)c(-c3ccccc3)cc12` [Example 18, 2-(4-fluorophenyl)-N-methyl-6-[(3-methylbutyl) (methylsulfonyl)amino]-5-phenyl-1-benzofuran-3-carboxamide] is 41 nM; for `CCC(C)CN(c1cc2oc(-c3ccc(F)cc3)c(C(=O)NC)c2cc1-c1ccccc1)S(C)(=O)=O` (centres unmarked) [Example 19, 2-(4-fluorophenyl)-N-methyl-6-[(2-methylbutyl) (methylsulfonyl)amino]-5-phenyl-1-benzofuran-3-carboxamide] it is 227 nM.
Take `CCCCCN(c1cc2oc(-c3ccc(F)cc3)c(C(=O)NC)c2cc1-c1ccccc1)S(C)(=O)=O` [Example 20, 2-(4-fluorophenyl)-N-methyl-6-[(methylsulfonyl) (pentyl)amino]-5-phenyl-1-benzofuran-3-carboxamide]: the IC50 stood at 66 nM.
The figure for `CNC(=O)c1c(-c2ccc(F)cc2)oc2cc(N(CC3CCC3)S(C)(=O)=O)c(-c3ccccc3)cc12` [Example 21, 6-[(cyclobutylmethyl) (methylsulfonyl)amino]-2-(4-fluorophenyl)-N-methyl-5-phenyl-1-benzofuran-3-carboxamide] is 115 nM; for `CNC(=O)c1c(-c2ccc(F)cc2)oc2cc(N(C3CCCC3)S(C)(=O)=O)c(-c3ccccc3)cc12` [Example 22, 6-[cyclopentyl (methylsulfonyl)amino]-2-(4-fluorophenyl)-N-methyl-5-phenyl-1-benzofuran-3-carboxamide] it is 55 nM.
For the compound `CCC(CC)CN(c1cc2oc(-c3ccc(F)cc3)c(C(=O)NC)c2cc1-c1ccccc1)S(C)(=O)=O` [Example 23, 6-[(2-ethylbutyl) (methylsulfonyl)amino]-2-(4-fluorophenyl)-N-methyl-5-phenyl-1-benzofuran-3-carboxamide], the IC50 turned out to be 374 nM.
In the case of `CCCCCCN(c1cc2oc(-c3ccc(F)cc3)c(C(=O)NC)c2cc1-c1ccccc1)S(C)(=O)=O` [Example 24, 2-(4-fluorophenyl)-6-[hexyl (methylsulfonyl)amino]-N-methyl-5-phenyl-1-benzofuran-3-carboxamide], the IC50 was determined as 182 nM.
For `CNC(=O)c1c(-c2ccc(F)cc2)oc2cc(N(CCCC(C)C)S(C)(=O)=O)c(-c3ccccc3)cc12` [Example 25, 2-(4-fluorophenyl)-N-methyl-6-[(4-methylpentyl) (methylsulfonyl)amino]-5-phenyl-1-benzofuran-3-carboxamide] the value was 166 nM.
On to `CNC(=O)c1c(-c2ccc(F)cc2)oc2cc(N(CCC3CCCCC3)S(C)(=O)=O)c(-c3ccccc3)cc12` [Example 27, 6-[(2-cyclohexylethyl) (methylsulfonyl)amino]-2-(4-fluorophenyl)-N-methyl-5-phenyl-1-benzofuran-3-carboxamide], for which the IC50 amounted to 384 nM.
As for `CNC(=O)c1c(-c2ccc(F)cc2)oc2cc(N(CCCO)S(C)(=O)=O)c(-c3ccccc3)cc12` [Example 28, 2-(4-fluorophenyl)-6-[(3-hydroxypropyl) (methylsulfonyl)amino]-N-methyl-5-phenyl-1-benzofuran-3-carboxamide], the IC50 is 46 nM.
For `CNC(=O)c1c(-c2ccc(F)cc2)oc2cc(N(CC(C)O)S(C)(=O)=O)c(-c3ccccc3)cc12` (centres unmarked) [Example 29, 2-(4-fluorophenyl)-6-[(2-hydroxypropyl) (methylsulfonyl)amino]-N-methyl-5-phenyl-1-benzofuran-3-carboxamidc], the IC50 was found to be 412 nM.
On to `CNC(=O)c1c(-c2ccc(F)cc2)oc2cc(N(CCCCOC(C)=O)S(C)(=O)=O)c(-c3ccccc3)cc12` [Example 30, 4-{[2-(4-fluorophenyl)-3-(methylcarbamoyl)-5-phenyl-1-benzofuran-6-yl] (methylsulfonyl)amino}butyl acetate], for which the IC50 worked out at 40 nM.
With `C#CCN(c1cc2oc(-c3ccc(F)cc3)c(C(=O)NC)c2cc1-c1ccccc1)S(C)(=O)=O` [Example 34, 2-(4-fluorophenyl)-N-methyl-6-[(methylsulfonyl) (prop-2-yn-1-yl)amino]-5-phenyl-1-benzofuran-3-carboxamide], the IC50 was determined as 189 nM.
`C=CCN(c1cc2oc(-c3ccc(F)cc3)c(C(=O)NC)c2cc1-c1ccccc1)S(C)(=O)=O` [Example 35, 2-(4-fluorophenyl)-N-methyl-6-[(methylsulfonyl) (prop-2-en-1-yl)amino]-5-phenyl-1-benzofuran-3-carboxamide]: the IC50 is 7 nM.
Regarding `CNC(=O)c1c(-c2ccc(F)cc2)oc2cc(N(CCC=C(C)C)S(C)(=O)=O)c(-c3ccccc3)cc12` [Example 40, 2-(4-fluorophenyl)-N-methyl-6-[(4-methylpent-3-en-1-yl)(methylsulfonyl)amino]-5-phenyl-1-benzofuran-3-carboxamide], the IC50 is 90 nM.
As for `CCOC(=O)CN(c1cc2oc(-c3ccc(F)cc3)c(C(=O)NC)c2cc1-c1ccccc1)S(C)(=O)=O` [Example 41, ethyl N-[2-(4-fluorophenyl)-3-(methylcarbamoyl)-5-phenyl-1-benzofuran-6-yl]-N-(methylsulfonyl) glycinate], the IC50 was greater than 2000 nM.
Turning to `CCOC(=O)CCCN(c1cc2oc(-c3ccc(F)cc3)c(C(=O)NC)c2cc1-c1ccccc1)S(C)(=O)=O` [Example 42, ethyl 4-{[2-(4-fluorophenyl)-3-(methylcarbamoyl)-5-phenyl-1-benzofuran-6-yl](methylsulfonyl)amino}butanoate], the IC50 worked out at 60 nM.
Turning to `CNC(=O)c1c(-c2ccc(F)cc2)oc2cc(N(Cc3cccc(F)c3)S(C)(=O)=O)c(-c3ccccc3)cc12` [Example 53, 6-[(3-fluorobenzyl)(methyl-sulfonyl)amino]-2-(4-fluorophenyl)-N-methyl-5-phenyl-1-benzofuran-3-carboxamide], the IC50 was 373 nM.
Turning to `CNC(=O)c1c(-c2ccc(F)cc2)oc2cc(NC(C)c3ccccc3)c(-c3ccccc3)cc12` (centres unmarked) [Example 69, 2-(4-fluorophenyl)-N-methyl-5-phenyl-6-[(1-phenylethyl)amino]-1-benzofuran-3-carboxamide], the IC50 is greater than 3000 nM.
Take `CNC(=O)c1c(-c2ccc(F)cc2)oc2cc(NCCN(C)c3ccccc3)c(-c3ccccc3)cc12` [Example 70, 2-(4-fluorophenyl)-N-methyl-6-({2-[methyl(phenyl)amino]ethyl}amino)-5-phenyl-1-benzofuran-3-carboxamide]: the IC50 is 329 nM.
As to `CNC(=O)c1c(-c2ccc(F)cc2)oc2cc(N(C)C(C)c3ccccc3)c(-c3ccccc3)cc12` (centres unmarked) [Example 71, 2-(4-fluorophenyl)-N-methyl-6-[methyl(1-phenylethyl)amino]-5-phenyl-1-benzofuran-3-carboxamide], the IC50 is greater than 2500 nM.
Consider `CCOC(=O)N(CCN(C)c1ccccc1)c1cc2oc(-c3ccc(F)cc3)c(C(=O)NC)c2cc1-c1ccccc1` [Example 72, ethyl[2-(4-fluorophenyl)-3-(methylcarbamoyl)-5-phenyl-1-benzofuran-6-yl]{2-[methyl(phenyl)amino]ethyl}carbamate], for which the IC50 was 2670 nM.
For the compound `CNC(=O)c1c(-c2ccc(F)cc2)oc2cc(NC(=O)CN(C)c3ccccc3)c(-c3ccccc3)cc12` [Example 73], the IC50 amounted to 143 nM.
As to `CNC(=O)c1c(-c2ccc(F)cc2)oc2cc(N(C)C(=O)CN(C)c3ccccc3)c(-c3ccccc3)cc12` [Example 74, 2-(4-fluorophenyl)-N-methyl-6-[methyl(N-methyl-N-phenylglycyl)amino]-5-phenyl-1-benzofuran-3-carboxamide], the IC50 turned out to be 395 nM.
